Results on 27 molecules are retold here after US10023570B2 (Array BioPharma, Inc., priority 2015, dated 2018).

The target of the assay is human KDR protein in HEK-293 cells (Homo sapiens (Human), UniProt P35968). Briefly: KDR Cell Assay (phospho-KDR in HEK-293 cells expressing inducible KDR). The assay is classed as cell-based. Particulars: pKDR Cell HEK 10% FBS IC50, HEK-293 cells expressing inducible KDR, VEGF stimulated, 10% FBS. How it is done:
The cellular potency of a compound inhibiting KDR kinase was determined in HEK-293 cells expressing an inducible human KDR protein. […] The cells were incubated for 1 hour with test compound in DMEM at a final DMSO concentration of 0.25%. […] The media was aspirated and 35 μL of a 1× lysis buffer was added. […] The lysate was stored at −80° C. until ready for assay. Phospho-KDR was measured using a phospho-KDR kit (Catalog #K151BOC) purchased from Meso Scale Diagnostics (Rockville, Md.) according to the manufacturer's instructions. All values are expressed as percent of percent of control (POC). The POC values were fitted to a 4 parameter logistic curve fit and the IC50 value is point where the curve crosses 50 POC.

Sequence of human KDR protein in HEK-293 cells (P35968 20-1356): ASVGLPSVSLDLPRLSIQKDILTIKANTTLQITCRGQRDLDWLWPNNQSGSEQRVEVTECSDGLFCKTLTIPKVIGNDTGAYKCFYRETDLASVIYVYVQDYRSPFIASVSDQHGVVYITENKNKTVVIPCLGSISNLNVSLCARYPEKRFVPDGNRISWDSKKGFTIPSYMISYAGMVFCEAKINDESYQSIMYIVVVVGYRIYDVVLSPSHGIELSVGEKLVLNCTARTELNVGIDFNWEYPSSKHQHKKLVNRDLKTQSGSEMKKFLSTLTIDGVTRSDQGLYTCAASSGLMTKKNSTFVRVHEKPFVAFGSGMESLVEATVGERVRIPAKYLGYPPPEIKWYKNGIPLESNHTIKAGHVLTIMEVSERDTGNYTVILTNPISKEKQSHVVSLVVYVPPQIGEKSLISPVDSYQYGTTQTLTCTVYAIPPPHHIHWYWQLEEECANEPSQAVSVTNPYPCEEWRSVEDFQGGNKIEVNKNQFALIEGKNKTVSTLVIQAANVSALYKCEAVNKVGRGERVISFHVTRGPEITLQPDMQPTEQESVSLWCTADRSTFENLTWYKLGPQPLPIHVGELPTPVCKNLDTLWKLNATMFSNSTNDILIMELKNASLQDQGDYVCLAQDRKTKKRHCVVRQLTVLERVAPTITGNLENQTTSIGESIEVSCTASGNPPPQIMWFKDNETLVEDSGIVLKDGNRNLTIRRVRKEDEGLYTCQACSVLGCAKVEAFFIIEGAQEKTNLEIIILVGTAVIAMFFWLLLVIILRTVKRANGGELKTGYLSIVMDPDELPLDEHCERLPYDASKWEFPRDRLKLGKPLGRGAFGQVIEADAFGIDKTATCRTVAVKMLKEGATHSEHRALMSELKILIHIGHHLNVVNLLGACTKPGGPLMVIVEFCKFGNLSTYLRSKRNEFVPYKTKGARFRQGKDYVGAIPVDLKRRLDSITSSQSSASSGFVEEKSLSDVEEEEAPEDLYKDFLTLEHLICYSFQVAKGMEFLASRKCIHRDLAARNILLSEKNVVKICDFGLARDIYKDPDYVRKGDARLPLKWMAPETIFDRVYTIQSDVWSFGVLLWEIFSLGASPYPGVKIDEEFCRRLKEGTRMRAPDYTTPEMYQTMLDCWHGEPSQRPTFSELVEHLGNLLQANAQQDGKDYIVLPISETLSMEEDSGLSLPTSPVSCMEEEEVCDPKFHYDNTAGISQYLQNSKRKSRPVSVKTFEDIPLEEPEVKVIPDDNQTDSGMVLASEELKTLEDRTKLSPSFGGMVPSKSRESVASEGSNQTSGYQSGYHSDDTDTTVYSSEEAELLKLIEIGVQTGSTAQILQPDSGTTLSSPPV

In turn, `Cn1cc(-c2cc(-c3ccc(N4CCN(C(=O)[C@H](O)c5ccccc5)CC4)nc3)c3c(C#N)cnn3c2)cn1` [Example 82, (R)-4-(6-(4-(2-hydroxy-2-phenylacetyl)piperazin-1-yl)pyridin-3-yl)-6-(1-methyl-1H-pyrazol-4-yl)pyrazolo[1,5-a]pyridine-3-carbonitrile] had an IC50 of 91.2 nM.

In turn, `CO[C@@H](C(=O)N1CCN(c2ccc(-c3cc(-c4cnn(C)c4)cn4ncc(C#N)c34)cn2)CC1)c1ccccc1` [Example 83] displayed a half-maximal inhibitory concentration (IC50) of 135 nM.

`CO[C@H](C(=O)N1CCN(c2ccc(-c3cc(-c4cnn(C)c4)cn4ncc(C#N)c34)cn2)CC1)c1ccccc1` [Example 84] gave a half-inhibitory concentration (IC50) of 1260 nM.

In turn, `CO[C@@H](C(=O)N1CCN(c2ccc(-c3cc(-c4cnn(C)c4)cn4ncc(C#N)c34)cn2)CC1)C(C)C` [Example 86, (R)-4-(6-(4-(2-methoxy-3-methylbutanoyl)piperazin-1-yl)pyridin-3-yl)-6-(1-methyl-1H-pyrazol-4-yl)pyrazolo[1,5-a]pyridine-3-carbonitrile] registered an IC50 of 428 nM.

With `Cn1cc(-c2cc(-c3ccc(N4CCN(S(=O)(=O)CC5CC5)CC4)nc3)c3c(C#N)cnn3c2)cn1` [Example 87, 4-(6-(4-((cyclopropylmethyl)sulfonyl)piperazin-1-yl)pyridin-3-yl)-6-(1-methyl-1H-pyrazol-4-yl)pyrazolo[1,5-a]pyridine-3-carbonitrile], the midpoint of inhibition, the IC50, lay at 5.8 nM.

Take `Cn1cc(-c2cc(-c3ccc(N4CCN(S(C)(=O)=O)CC4)nc3)c3c(C#N)cnn3c2)cn1` [Example 88, 6-(1-methyl-1H-pyrazol-4-yl)-4-(6-(4-(methylsulfonyl)piperazin-1-yl)pyridin-3-yl)pyrazolo[1,5-a]pyridine-3-carbonitrile]: half-maximal inhibition (IC50) required 195 nM.

On to `Cn1cc(-c2cc(-c3ccc(N4CCN(S(=O)(=O)CC(C)(C)C)CC4)nc3)c3c(C#N)cnn3c2)cn1` [Example 89], for which 189 nM corresponded to half-maximal inhibition (IC50).

On to `CC(C)CS(=O)(=O)N1CCN(c2ccc(-c3cc(-c4cnn(C)c4)cn4ncc(C#N)c34)cn2)CC1` [Example 90, 4-(6-(4-(isobutylsulfonyl)piperazin-1-yl)pyridin-3-yl)-6-(1-methyl-1H-pyrazol-4-yl)pyrazolo[1,5-a]pyridine-3-carbonitrile], for which inhibition was half-maximal at 24.1 nM (IC50).

Molecule `Cn1cc(-c2cc(-c3ccc(N4CCN(S(=O)(=O)C5CCOCC5)CC4)nc3)c3c(C#N)cnn3c2)cn1` [Example 91, 6-(1-methyl-1H-pyrazol-4-yl)-4-(6-(4-((tetrahydro-2H-pyran-4-yl)sulfonyl)piperazin-1-yl)pyridin-3-yl)pyrazolo[1,5-a]pyridine-3-carbonitrile] gave a half-inhibitory concentration (IC50) of 60.1 nM.

In the case of `Cn1cc(-c2cc(-c3ccc(N4CCN(C(=O)N5CCCCC5)CC4)nc3)c3c(C#N)cnn3c2)cn1` [Example 93, 6-(1-methyl-1H-pyrazol-4-yl)-4-(6-(4-(piperidine-1-carbonyl)piperazin-1-yl)pyridin-3-yl)pyrazolo[1,5-a]pyridine-3-carbonitrile], it took 1700 nM to reach half-maximal inhibition (IC50).

Molecule `Cn1cc(-c2cc(-c3ccc(N4CCN(C(=O)N5CCCC(F)(F)C5)CC4)nc3)c3c(C#N)cnn3c2)cn1` [Example 94, 4-(6-(4-(3,3-difluoropiperidine-1-carbonyl)piperazin-1-yl)pyridin-3-yl)-6-(1-methyl-1H-pyrazol-4-yl)pyrazolo[1,5-a]pyridine-3-carbonitrile] displayed an IC50 of 1700 nM.

With `Cn1cc(-c2cc(-c3ccc(N4CCN(C(=O)N5C6CCC5CC6)CC4)nc3)c3c(C#N)cnn3c2)cn1` [Example 95, 4-(6-(4-(7-azabicyclo[2.2.1]heptane-7-carbonyl)piperazin-1-yl)pyridin-3-yl)-6-(1-methyl-1H-pyrazol-4-yl)pyrazolo[1,5-a]pyridine-3-carbonitrile], the IC50 was determined as 1310 nM.

`CO[C@H]1CCN(C(=O)N2CCN(c3ccc(-c4cc(-c5cnn(C)c5)cn5ncc(C#N)c45)cn3)CC2)C1` [Example 97, (S)-4-(6-(4-(3-methoxypyrrolidine-1-carbonyl)piperazin-1-yl)pyridin-3-yl)-6-(1-methyl-1H-pyrazol-4-yl)pyrazolo[1,5-a]pyridine-3-carbonitrile]: inhibition was half-maximal at 751 nM (IC50).

`Cn1cc(-c2cc(-c3ccc(N4CCN(C(=O)N5CCC(F)(F)C5)CC4)nc3)c3c(C#N)cnn3c2)cn1` [Example 101, 4-(6-(4-(3,3-difluoropyrrolidine-1-carbonyl)piperazin-1-yl)pyridin-3-yl)-6-(1-methyl-1H-pyrazol-4-yl)pyrazolo[1,5-a]pyridine-3-carbonitrile] came in with an IC50 of 868 nM.

Turning to `Cn1cc(-c2cc(-c3ccc(N4CCN(C(=O)N5CC[C@H](F)C5)CC4)nc3)c3c(C#N)cnn3c2)cn1` [Example 102, (S)-4-(6-(4-(3-fluoropyrrolidine-1-carbonyl)piperazin-1-yl)pyridin-3-yl)-6-(1-methyl-1H-pyrazol-4-yl)pyrazolo[1,5-a]pyridine-3-carbonitrile], inhibition was half-maximal at 551 nM (IC50).

With `Cn1cc(-c2cc(-c3ccc(N4CCN(C(=O)N5CC[C@@H](F)C5)CC4)nc3)c3c(C#N)cnn3c2)cn1` [Example 103, (R)-4-(6-(4-(3-fluoropyrrolidine-1-carbonyl)piperazin-1-yl)pyridin-3-yl)-6-(1-methyl-1H-pyrazol-4-yl)pyrazolo[1,5-a]pyridine-3-carbonitrile], half-maximal inhibition (IC50) was put at 848 nM.

Take `CO[C@@H]1CCN(C(=O)N2CCN(c3ccc(-c4cc(-c5cnn(C)c5)cn5ncc(C#N)c45)cn3)CC2)C1` [Example 104, (R)-4-(6-(4-(3-methoxypyrrolidine-1-carbonyl)piperazin-1-yl)pyridin-3-yl)-6-(1-methyl-a]pyridine-3-carbonitrile 1H-pyrazol-4-yl)pyrazolo[1,5-]: the midpoint of inhibition, the IC50, lay at 637 nM.

Molecule `Cn1cc(-c2cc(-c3ccc(N4CCN(C(=O)N[C@H]5CCOC5)CC4)nc3)c3c(C#N)cnn3c2)cn1` [Example 105, (S)-4-(5-(3-cyano-6-(1-methyl-1H-pyrazol-4-yl)pyrazolo[1,5-a]pyridin-4-yl)pyridin-2-yl)-N-(tetrahydrofuran-3-yl)piperazine-1-carboxamide] registered an IC50 of 1140 nM.

`Cn1cc(-c2cc(-c3ccc(N4CCN(C(=O)N[C@@H]5CCOC5)CC4)nc3)c3c(C#N)cnn3c2)cn1` [Example 106, (R)-4-(5-(3-cyano-6-(1-methyl-1H-pyrazol-4-yl)pyrazolo[1,5-a]pyridin-4-yl)pyridin-2-yl)-N-(tetrahydrofuran-3-yl)piperazine-1-carboxamide] displayed a 50% inhibitory concentration (IC50) of 1370 nM.

Regarding `CC(C)O[C@@H]1CCN(C(=O)N2CCN(c3ccc(-c4cc(-c5cnn(C)c5)cn5ncc(C#N)c45)cn3)CC2)C1` [Example 107, (R)-4-(6-(4-(3-isopropoxypyrrolidine-1-carbonyl)piperazin-1-yl)pyridin-3-yl)-6-(1-methyl-1H-pyrazol-4-yl)pyrazolo[1,5-a]pyridine-3-carbonitrile], 893 nM corresponded to half-maximal inhibition (IC50).

In turn, `CC(C)O[C@H]1CCN(C(=O)N2CCN(c3ccc(-c4cc(-c5cnn(C)c5)cn5ncc(C#N)c45)cn3)CC2)C1` [Example 108, (S)-4-(6-(4-(3-isopropoxypyrrolidine-1-carbonyl)piperazin-1-yl)pyridin-3-yl)-6-(1-methyl-1H-pyrazol-4-yl)pyrazolo[1,5-a]pyridine-3-carbonitrile] displayed an IC50 of 531 nM.

For the molecule `CN(C(=O)N1CCN(c2ccc(-c3cc(-c4cnn(C)c4)cn4ncc(C#N)c34)cn2)CC1)c1ccccc1` [Example 109, 4-(5-(3-cyano-6-(1-methyl-1H-pyrazol-4-yl)pyrazolo[1,5-a]pyridin-4-yl)pyridin-2-yl)-N-methyl-N-phenylpiperazine-1-carboxamide], the concentration for half-maximal inhibition (IC50) was found to be 360 nM.

Turning to `COC[C@H]1CCCN1C(=O)N1CCN(c2ccc(-c3cc(-c4cnn(C)c4)cn4ncc(C#N)c34)cn2)CC1` [Example 110, (R)-4-(6-(4-(2-(methoxymethyl)pyrrolidine-1-carbonyl)piperazin-1-yl)pyridin-3-yl)-6-(1-methyl-1H-pyrazol-4-yl)pyrazolo[1,5-a]pyridine-3-carbonitrile], it took 1310 nM to reach half-maximal inhibition (IC50).

For `COC[C@@H]1CCCN1C(=O)N1CCN(c2ccc(-c3cc(-c4cnn(C)c4)cn4ncc(C#N)c34)cn2)CC1` [Example 111, (S)-4-(6-(4-(2-(methoxymethyl)pyrrolidine-1-carbonyl)piperazin-1-yl)pyridin-3-yl)-6-(1-methyl-1H-pyrazol-4-yl)pyrazolo[1,5-a]pyridine-3-carbonitrile], the concentration for half-maximal inhibition (IC50) was determined as 1960 nM.

Turning to `Cn1cc(-c2cc(-c3ccc(N4CCN(C(=O)N5CCC[C@H]5C#N)CC4)nc3)c3c(C#N)cnn3c2)cn1` [Example 112, (S)-4-(6-(4-(2-cyanopyrrolidine-1-carbonyl)piperazin-1-yl)pyridin-3-yl)-6-(1-methyl-1H-pyrazol-4-yl)pyrazolo[1,5-a]pyridine-3-carbonitrile], the 50% inhibitory concentration (IC50) turned out to be 869 nM.

In turn, `Cn1cc(-c2cc(-c3ccc(N4CCN(C(=O)N5CCC[C@H]5C(F)(F)F)CC4)nc3)c3c(C#N)cnn3c2)cn1` [Example 113, (S)-6-(1-methyl-1H-pyrazol-4-yl)-4-(6-(4-(2-(trifluoromethyl)pyrrolidine-1-carbonyl)piperazin-1-yl)pyridin-3-yl)pyrazolo[1,5-a]pyridine-3-carbonitrile] came in with a 50% inhibitory concentration (IC50) of 654 nM.

On to `Cn1cc(-c2cc(-c3ccc(N4CCN(C(=O)N5CCC(F)CC5)CC4)nc3)c3c(C#N)cnn3c2)cn1` [Example 114, 4-(6-(4-(4-fluoropiperidine-1-carbonyl)piperazin-1-yl)pyridin-3-yl)-6-(1-methyl-1H-pyrazol-4-yl)pyrazolo[1,5-a]pyridine-3-carbonitrile], for which the half-inhibitory concentration (IC50) was found to be 2250 nM.
